The values below come from patent publication US4191770A, “N1 -acyl-N2 -phenyldiaminopropanols and pharmaceutical compositions thereof” (Kali-Chemie Pharma GmbH, priority 1977, dated 1980).

Where a name gives a salt, the structure may show the parent alone.

The test system of data set [1] is secretion in the stomach. Description: Effect on the secretion in the stomach of narcotized rats (determination of the pH-value). It counts as in vivo. To be noted: for inhibition in vivo at 300 mg/kg: po, dosage 300 mg/kg p.o., narcotized rats, acetylcholine control = 100. The method, then: 3. Effect on the secretion in the stomach of narcotized rats (determinationof the pH-value)
The test is performed on narcotized (urethane narcosis) male rats, having a body-weight of 200-230 g. For this purpose N/4000-sodium hydroxide solution is perfused into the stomachs of rats at a rate of 1 ml per minute by means of a cardia- and pylorus-catheter. The pH value of the perfusate, which leaves the stomach by way of the pylorus catheter, is determined by means of a one-rod measuring system, and is continuously registered.
In order to perform a comparative control test, after a pre-run period of 20 minutes, 10 mg per kg of acetylcholine are applied intraperitoneously. The resulting comparative control value is defined as being 100.
For evaluation, the surface-integral is calculated numerically with the aid of the rule of Simpson. The degree of inhibition of the secretion is calculated from the difference between the surfaces before and after the application of the test compound.

In data set [2] the test system is indomethacine induced ulcers. Description: Effectiveness against indomethacine-induced ulcers in the rat. The data set is classed as in vivo, rats. As to conditions: for inhibition in vivo at 150 mg/kg: dosage 150 mg/kg p.o.; for inhibition in vivo at 75 mg/kg: dosage 75 mg/kg p.o.; for inhibition in vivo at 68 mg/kg: dosage 68 mg/kg p.o. The method, then: 2. Effectiveness against indomethacineinduced ulcers in the rate (Modified test procedure according to
To at least 6 male rats, having a body-weight of from 170 to 220 g, dosages of the test compounds are administered orally in an amount of 0.5 ml of a suspension medium per 100 g animal body-weight. The animals of the blank control group receive the corresponding amount by volume of the suspension medium only. One hour after application of the test compounds, a dosage of 20 mg per kg of indomethacine contained in an amount of 0.5 ml of a suspension per 100 g animal body-weight, are orally applied to each animal for producing ulcers. 24 hours after the application of indomethacine, the animals are sacrificed.
The mean value and the standard deviation of the numbers of ulcers is calculated, and subsequently the inhibiting activity of the test compounds and a standard compound are calculated as percent inhibition compared with the blank control group.

The nature of data set [3]: in vivo. To be noted: mouse, po, single dose p.o., unfed NMRI mice, 7 days, read-out: Toxicity LD50 p.o. How it is done: The acute 7-day-toxicity is determined after a single application per os in white NMRI-mice which had not been fed. The calculation of the LD50 is carried out by probitanalysis by means of electronic data processing (see L. Cavalli-Sforza, Gustav Fischer-Verlag, Stuttgart (1964), Grundbegriffe der Biometrie, p. 153).

The mark [4] stands for this setting: at a low dosage, footnote of Table I.
Setting [5] is: Rattus norvegicus, po, 1 h before 20 mg/kg indomethacine, 24 h.

For `CN1[C@@H]2CC[C@H]1C[C@@H](OC(=O)C(CO)c1ccccc1)C2` (stereo partly shown) [A, atropine sulfate, reference compound], in data set [1] (Rattus norvegicus, ip, read-out: Inhibition of secretion in the stomach, % inhibition), the inhibition in vivo at 0.5 mg/kg was 100%. In data set [1] (setting [4]), the “inhibition of the secretion in the stomach (in words)” value is given as “strong inhibition”. Besides, the inhibition in vivo at 12 mg/kg in data set [2] (Rattus norvegicus, po, dosage 12 mg/kg p.o., 1 h before 20 mg/kg indomethacine, 24 h) came out at 26%. The “effect on the ulcer (in words)” value in data set [2] (setting [4]) is reported as “does not have a sufficiently”.

By LD50 is commonly meant the dose at which mortality reaches 50%. Take `CC(=O)NCC(O)CN(C)c1ccc(Cl)cc1` (stereo not shown) [Compound 1, N1-acetyl-N2-methyl-N2-(4-chlorophenyl)-1,3-diaminopropan-2-ol]: the LD50 at 168 h in data set [3] was determined as 2260 mg/kg. The same compound yielded an inhibition in vivo at 300 mg/kg in data set [1] (Rattus norvegicus) of 0%. In data set [2] (setting [5]), the inhibition in vivo at 150 mg/kg was 33%.

For `CCCCCC(=O)NCC(O)CN(C)c1ccc(F)cc1` (stereo not shown) [Compound 2, N1-hexanoyl-N2-methyl-N2-(4-fluorophenyl)-1,3-diaminopropan-2-ol], the LD50 at 168 h in data set [3] is 4320 mg/kg. This compound displayed an inhibition in vivo at 300 mg/kg in data set [1] (Rattus norvegicus) of 0%. Also, the inhibition in vivo at 150 mg/kg in data set [2] (setting [5]) worked out at 44%.

Regarding `CCCCCCCCCCCCCCCC(=O)NCC(O)CN(C)c1ccc(Cl)cc1` (stereo not shown) [Compound 3, N1-hexadecanoyl-N2-methyl-N2-(4-chlorophenyl)-1,3-diaminopropan-2-ol], in data set [3], the median lethal dose (LD50) at 168 h was > 6810 mg/kg. The inhibition in vivo at 300 mg/kg in data set [1] (Rattus norvegicus) came to 0%. For the same compound, the inhibition in vivo at 150 mg/kg in data set [2] (setting [5]) was 40%.

As to `CN(CC(O)CNC(=O)C1CC1)c1ccccc1` (stereo not shown) [Compound 4, N1-cyclopropylcarbonyl-N2-methyl-N2-phenyl-1,3-diaminopropan-2-ol], the median lethal dose (LD50) at 168 h in data set [3] is > 1470 mg/kg. This compound also had an inhibition in vivo at 300 mg/kg in data set [1] (Rattus norvegicus) of 0%. In data set [2] (setting [5]), this compound gave an inhibition in vivo at 150 mg/kg of 36%.

On to `CN(CC(O)CNC(=O)C1CCCCC1)c1ccccc1` (stereo not shown) [Compound 5, N1-cyclohexylcarbonyl-N2-methyl-N2-phenyl-1,3-diaminopropan-2-ol], for which the 50% lethal dose (LD50) at 168 h in data set [3] came out at 3200 mg/kg. This compound also showed an inhibition in vivo at 300 mg/kg in data set [1] (Rattus norvegicus) of 0%. Also, the inhibition in vivo at 150 mg/kg in data set [2] (setting [5]) worked out at 47%.

As for `CN(CC(O)CNC(=O)C1CCCCC1)c1ccc(F)cc1` (stereo not shown) [Compound 6, N1-cyclohexylcarbonyl-N2-methyl-N2-(4-fluorophenyl)-1,3-diaminopropan-2-ol], in data set [3], the LD50 at 168 h was > 1470 mg/kg. Also, the inhibition in vivo at 300 mg/kg in data set [1] (Rattus norvegicus) came to 0%. This compound gave an inhibition in vivo at 150 mg/kg in data set [2] (setting [5]) of 40%.

`CCCN(CC(O)CNC(=O)C1CCCCC1)c1ccccc1` (stereo not shown) [Compound 7, N1-cyclohexylcarbonyl-N2-propyl-N2-phenyl-1,3-diaminopropan-2-ol]: the 50% lethal dose (LD50) at 168 h in data set [3] is > 1470 mg/kg. The inhibition in vivo at 300 mg/kg in data set [1] (Rattus norvegicus) was found to be 0%. Further, in data set [2] (setting [5]), the inhibition in vivo at 150 mg/kg was found to be 34%.

With `CN(CC(O)CNC(=O)Cc1ccccc1)c1ccc(Cl)cc1` (stereo not shown) [Compound 8, N1-phenacetyl-N2-methyl-N2-(4-chlorophenyl)-1,3-diaminopropan-2-ol], the LD50 at 168 h in data set [3] is 3860 mg/kg. In data set [1] (Rattus norvegicus), the inhibition in vivo at 300 mg/kg was found to be 0%. Besides, the inhibition in vivo at 75 mg/kg in data set [2] (setting [5]) is 26%.

In the case of `CN(CC(O)CNC(=O)C=Cc1ccccc1)c1ccc(Cl)cc1` (stereo not shown) [Compound 9, N1-cinnamoyl-N2-methyl-N2-(4-chlorophenyl)-1,3-diaminopropan-2-ol], the 50% lethal dose (LD50) at 168 h in data set [3] is > 6810 mg/kg. In data set [1] (Rattus norvegicus), this compound gave an inhibition in vivo at 300 mg/kg of 0%. This compound gave an inhibition in vivo at 68 mg/kg in data set [2] (setting [5]) of 32%.

Consider `COc1ccc(C=CC(=O)NCC(O)CN(C)c2ccc(Cl)cc2)cc1OC` (stereo not shown) [Compound 10, N1-(3,4-dimethoxycinnamoyl)-N2-methyl-N2-(4-chlorophenyl)-1,3-diaminopropan-2-ol], for which the LD50 at 168 h in data set [3] is > 6810 mg/kg. In data set [1] (Rattus norvegicus), this compound yielded an inhibition in vivo at 300 mg/kg of 0%. For the same compound, in data set [2] (setting [5]), the inhibition in vivo at 75 mg/kg is 32%.

In the case of `CN(CC(O)CNC(=O)c1ccccn1)c1ccc(Cl)cc1` (stereo not shown) [Compound 11, N1-picolinoyl-N2-methyl-N2-(4-chlorophenyl)-1,3-diaminopropan-2-ol], the median lethal dose (LD50) at 168 h in data set [3] came out at 3300 mg/kg. The compound also came in with an inhibition in vivo at 300 mg/kg in data set [1] (Rattus norvegicus) of 0%. Also, the inhibition in vivo at 68 mg/kg in data set [2] (setting [5]) stood at 71%.

In the case of `CN(CC(O)CNC(=O)c1ccco1)c1ccc(Cl)c(Cl)c1` (stereo not shown) [Compound 12, N1-furoyl-N2-methyl-N2-(3,4-dichlorophenyl)-1,3-diaminopropan-2-ol], the LD50 at 168 h in data set [3] is > 1470 mg/kg. The compound further registered an inhibition in vivo at 300 mg/kg in data set [1] (Rattus norvegicus) of 0%. In data set [2] (setting [5]), this compound gave an inhibition in vivo at 75 mg/kg of 29%.

`COCCN(CC(O)CNC(=O)c1ccco1)c1ccc(Cl)cc1` (stereo not shown) [Compound 13, N1-furoyl-N2-methoxyethyl-N2-(4-chlorophenyl)-1,3-diaminopropan-2-ol]: the LD50 at 168 h in data set [3] was > 1470 mg/kg. Besides, the inhibition in vivo at 300 mg/kg in data set [1] (Rattus norvegicus) is 0%. This compound also registered an inhibition in vivo at 75 mg/kg in data set [2] (setting [5]) of 35%.

As for `COc1ccc(C(=O)NCC(O)CNc2ccccc2Cl)cc1OC` (stereo not shown) [Compound 14, N1-(3,4-dimethoxybenzoyl)-N2-(2-chlorophenyl)-1,3-diaminopropan-2-ol], in data set [3], the LD50 at 168 h is > 6700 mg/kg. This compound gave an inhibition in vivo at 300 mg/kg in data set [1] (Rattus norvegicus) of 0%. Further, the inhibition in vivo at 75 mg/kg in data set [2] (setting [5]) stood at 33%.

Take `COc1ccc(C(=O)NCC(O)CN(C)c2ccc(F)cc2)cc1OC` (stereo not shown) [Compound 15, N1-(3,4-dimethoxybenzoyl)-N2-methyl-N2-(4-fluorophenyl)-1,3-diaminopropan-2-ol]: the LD50 at 168 h in data set [3] is > 6810 mg/kg. The compound also registered an inhibition in vivo at 300 mg/kg in data set [1] (Rattus norvegicus) of 0%. This compound showed an inhibition in vivo at 75 mg/kg in data set [2] (setting [5]) of 32%.

In the case of `COc1ccc(C(=O)NCC(O)CN(C)c2ccc(Cl)c(Cl)c2)cc1OC` (stereo not shown) [Compound 16, N1-(3,4-dimethoxybenzoyl)-N2-methyl-N2-(3,4-dichlorophenyl)-1,3-diaminopropan-2-ol], the LD50 at 168 h in data set [3] is > 6810 mg/kg. In data set [1] (Rattus norvegicus), this compound showed an inhibition in vivo at 300 mg/kg of 0%. The inhibition in vivo at 75 mg/kg in data set [2] (setting [5]) worked out at 38%.

As to `CCCN(CC(O)CNC(=O)c1ccc(OC)c(OC)c1)c1ccc(Cl)cc1` (stereo not shown) [Compound 17, N1-(3,4-dimethoxybenzoyl)-N2-propyl-N2-(4-chlorophenyl)-1,3-diaminopropan-2-ol], in data set [3], the LD50 at 168 h is > 6810 mg/kg. The compound further came in with an inhibition in vivo at 300 mg/kg in data set [1] (Rattus norvegicus) of 0%. Besides, the inhibition in vivo at 75 mg/kg in data set [2] (setting [5]) was 34%.

On to `CN(CC(O)CNC(=O)c1ccccc1F)c1ccc(Cl)c(Cl)c1` (stereo not shown) [Compound 18, N1-(2-fluorobenzoyl)-N2-methyl-N2-(3,4-dichlorophenyl)-1,3-diaminopropan-2-ol], for which the LD50 at 168 h in data set [3] is > 1470 mg/kg. The inhibition in vivo at 300 mg/kg in data set [1] (Rattus norvegicus) came out at 0%. This compound also yielded an inhibition in vivo at 75 mg/kg in data set [2] (setting [5]) of 33%.

In the case of `CC(C)c1ccc(N(C)CC(O)CNC(=O)c2ccco2)cc1` (stereo not shown) [Compound 19, N1-furoyl-N2-methyl-N2-(4-isopropylphenyl)-1,3-diaminopropan-2-ol], in data set [3], the 50% lethal dose (LD50) at 168 h is > 1470 mg/kg. Besides, in data set [1] (Rattus norvegicus), the inhibition in vivo at 300 mg/kg was determined as 0%. In addition, the inhibition in vivo at 75 mg/kg in data set [2] (setting [5]) came out at 31%.
